Numbers after ± are expanded uncertainties.
Experiments:
[1] = refractive index (Na D-line) (dimensionless); details: 298.15 K; 101.33 kPa; Liquid; Standard Abbe refractometry
[2] = Liquid; for vapor or sublimation pressure: Twin ebulliometer

| refractive index [1] | vapor or sublimation pressure ([2]; 292.33 K) [kPa] | vapor or sublimation pressure ([2]; 303.83 K) [kPa] | vapor or sublimation pressure ([2]; 311.14 K) [kPa] | vapor or sublimation pressure ([2]; 317.9 K) [kPa] | vapor or sublimation pressure ([2]; 323.09 K) [kPa] | vapor or sublimation pressure ([2]; 326.8 K) [kPa] | vapor or sublimation pressure ([2]; 330.56 K) [kPa] | vapor or sublimation pressure ([2]; 333.94 K) [kPa] | vapor or sublimation pressure ([2]; 337.18 K) [kPa] | vapor or sublimation pressure ([2]; 339.97 K) [kPa] | vapor or sublimation pressure ([2]; 342.3 K) [kPa] | mass density ([2]; 298.15 K, 101.33 kPa) [kg/m3] | SMILES |
| --- | --- | --- | --- | --- | --- | --- | --- | --- | --- | --- | --- | --- | --- |
| 1.3596 ± 0.0004 | 5.59 ± 0.15 | 10.86 ± 0.15 | 16.15 ± 0.16 | 22.84 ± 0.17 | 29.41 ± 0.18 | 35.11 ± 0.19 | 41.76 ± 0.21 | 48.61 ± 0.22 | 56.06 ± 0.24 | 63.2 ± 0.26 | 69.73 ± 0.27 |  | CCO [ethanol] |
| 1.3266 ± 0.0004 |  |  |  |  |  |  |  |  |  |  |  | 786.59 ± 0.62 | CO [methanol] |

From the NIST ThermoML archive (doi:10.1021/je060163o)
